# Where a chain is given by its changes, count along the chain named.
# T1: DgoR (BW WT DgoR) (Escherichia coli, UniProt P31460, A152E)
# T1 construct: full length (229 aa), C-terminal 6XHis tag, expressed from Ptrc in pRC10 in E. coli BL21(DE3), Co-NTA purified; dimer
# T1 sequence (P31460 1-229 A152E): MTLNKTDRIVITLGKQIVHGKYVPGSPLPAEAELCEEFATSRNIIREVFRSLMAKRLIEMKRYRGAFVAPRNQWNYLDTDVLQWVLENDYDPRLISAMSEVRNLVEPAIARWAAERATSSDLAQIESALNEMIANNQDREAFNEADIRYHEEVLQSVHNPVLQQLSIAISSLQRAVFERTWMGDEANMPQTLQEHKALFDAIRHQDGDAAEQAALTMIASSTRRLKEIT
# T2: DgoR (BW WT DgoR) (Escherichia coli, UniProt P31460)
# T2 construct: full length (229 aa), C-terminal 6XHis tag, expressed from Ptrc in pRC10 in E. coli BL21(DE3), Co-NTA purified; dimer
# T2 sequence (P31460 1-229): T1 sequence (P31460 1-229 A152E) with E152A
# T3: DgoR (BW WT DgoR) (Escherichia coli, UniProt P31460, R71C)
# T3 construct: full length (229 aa), C-terminal 6XHis tag, expressed from Ptrc in pRC10 in E. coli BL21(DE3), Co-NTA purified; dimer
# T3 sequence (P31460 1-229 R71C): T1 sequence (P31460 1-229 A152E) with R71C, E152A
# T4: DgoR WT (Escherichia coli BW, UniProt P31460 1-229)
# T4 sequence: T1 sequence (P31460 1-229 A152E) with E152A
# B1: dgo promoter probe GA149/GA150 (dsDNA)
# DNA 1: GTGATCTAAATTGTAGTACAACAATATAAGTTTGTACTACATTACACGCACG
# DNA 2: CGTGCGTGTAATGTAGTACAAACTTATATTGTTGTACTACAATTTAGATCAC
# What was measured:
# [1] = target: T1, DgoR (BW WT DgoR); assay: label-free microscale thermophoresis; format: binding
# [2] = target: T2, DgoR (BW WT DgoR); assay: label-free microscale thermophoresis; format: binding
# [3] = target: T3, DgoR (BW WT DgoR); assay: label-free microscale thermophoresis; format: binding
# [4] = target: T4, DgoR WT; assay: EMSA; no effector; apparent Kd, Hill fit; 10 nM DNA, 50 mM Tris pH 8.5, 10 mM MgCl2, 265 mM NaCl, 1 mM PMSF, 12% glycerol, 2 mM DTT, 1 ug herring sperm DNA per 20 uL, 27 C 30 min; effector pre-incubation 37 C 20 min; 8% native PAGE 0.5x TBE; details: protein: recombinant; tags: C-terminal 6xHis; chain copies: 2; label: 5'-Cy5 on strand 1; blunt
Molecule,Kd [1] [µM],Kd [2] [µM],Kd [3] [µM],Kd [4] [µM]
O=C(O)[C@H](O)[C@@H](O)[C@@H](O)[C@H](O)CO [D-galactonate],11.3 ± 0.2,10.3 ± 0.3,32.9 ± 1.2,–
B1,–,–,–,0.494 ± 0.019
